US5405861A, “Triazole compounds and antifungal compositions thereof” (Takeda Chemical Industries, Co., Ltd., priority 1989, dated 1995)
Counter-ions that a name gives are not always drawn. Like-named read-outs stand apart in the source and are kept apart here.

Columns and labels:
[1] = test system: Candida albicans; experiment: Infection-preventing effect in experimental infection in mice, Method 1 (Table 7-1); assay type: in vivo, Crj:CDF1 mice; conditions: given 0 and 2 hours after infection, survival 7 days after infection, total dose
Method: Method 1 (Table 7-1): To 5-week-old Crj:CDF1 mice the minimum lethal dose of Candida albicans was inoculated intravenously. The test drug was given twice 0 and 2 hours after infection. The effectiveness of the drug was expressed in ED50 values calculated by the Reed and Muench method from the survival rate 7 days after infection. The ED50 values were calculated based on the total dose given on the two occasions.

[2] = test system: Candida albicans (IFO 0538); experiment: Antifungal activity against Candida albicans, paper disc growth inhibition zone (Tables 5 and 6); assay type: cell-based; conditions: 28° C., 2 days incubation; for zone of inhibition at 1000 µg/mL: 48 h, read-out: Inhibition zone diameter
Method: The antifungal activities of the compounds (I) were evaluated by the following method: a sheet of filter paper disc (manufactured by Toyo Seisakusho, 8 mm in diameter) soaked in a 1000 μg/ml solution of a compound (I) in methanol was placed on an agar plate, which was incubated at 28° C. for 2 days, and the diameter of the growth inhibition zone around the filter paper disc was measured. The following culture media were used:
A: yeast nitrogen base agar medium
B: yeast nitrogen base agar medium (pH 7.0)

[3] = Candida albicans, sc, 168 h, s.c., read-out: ED50
[4] = pH 7, B medium (yeast nitrogen base agar, pH 7.0)
[5] = Candida albicans, po, 168 h, p.o., read-out: ED50
[6] = A medium (yeast nitrogen base agar)

Row | SMILES | ED50 [1, 3] [mg/kg] | zone of inhibition at 1000 µg/mL [2, 4] [mm] | other results
1 | C[C@@H](SCc1cncn1C)[C@](O)(Cn1cncn1)c1ccc(F)cc1F (racemic) [Compound 29, (2RS,3RS)-2-(2,4-difluorophenyl)-3-(1-methylimidazol-5-yl)methylthio-1-(1H-1,2,4-triazol-1-yl)-2-butanol] | 0.71 | 38 | –
2 | C[C@@H](S)[C@](O)(Cn1cncn1)c1ccc(F)cc1F (racemic) [Compound 39, (2RS,3RS)-2-(2,4-difluorophenyl)-3-mercapto-1-(1H-1,2,4-triazol-1-yl)-2-butanol] | 0.19 | 18 | ED50 [1, 5]: 0.35 mg/kg
3 | C[C@@H](SCCc1nccn1C)[C@](O)(Cn1cncn1)c1ccc(F)cc1F (racemic) [Compound 50, (2RS,3RS)-2-(2,4-difluorophenyl)-3-[2-(1-methylimidazol-2-yl)ethyl]thio-1-(1H-1,2,4-triazol-1-yl)-2-butanol] | 3.2 | 22 | –
4 | Cc1oc(=O)oc1CS[C@H](C)[C@](O)(Cn1cncn1)c1ccc(F)cc1F (racemic) [Compound 56, (2RS,3RS)-2-(2,4-difluorophenyl)-3-(5-methyl-2-oxo-1,3-dioxol-4-yl)methylthio-1-(1H-1,2,4-triazol-1-yl)-2-butanol] | 2 | 30 | –
5 | C[C@H](S)[C@](O)(Cn1cncn1)c1ccc(F)cc1F (racemic) [Compound 60, (2RS,3SR)-2-(2,4-difluorophenyl)-3-mercapto-1-(1H-1,2,4-triazol-1-yl)-2-butanol] | > 4 | 30 | –
6 | C[C@@H](SCCn1cncn1)[C@](O)(Cn1cncn1)c1ccc(F)cc1F (relative stereo) [13(hydrochloride)] | 10 | 25 | –
7 | C[C@@H](SCc1nccn1C)[C@](O)(Cn1cncn1)c1ccc(F)cc1F (relative stereo) [Compound 16] | 0.63 | 25 | –
8 | C[C@@H](SCc1nc2c(s1)CCC2)[C@](O)(Cn1cncn1)c1ccc(F)cc1F (relative stereo) [Compound 25] | 3.2 | 40 | –
9 | Cc1nnc(S[C@H](C)[C@](O)(Cn2cncn2)c2ccc(F)cc2F)s1 (relative stereo) [Compound 26] | 3.2 | 45 | –
10 | C[C@@H](SCc1cn(C)cn1)[C@](O)(Cn1cncn1)c1ccc(F)cc1F (relative stereo) [Compound 28] | 0.65 | 40 | –
11 | C[C@@H](SCc1ncnn1C)[C@](O)(Cn1cncn1)c1ccc(F)cc1F (relative stereo) [Compound 31] | 0.71 | 40 | –
12 | C[C@@H](SCc1ncn(C)n1)[C@](O)(Cn1cncn1)c1ccc(F)cc1F (relative stereo) [Compound 32] | 3.2 | 40 | –
13 | C[C@@H](SCc1nncn1C)[C@](O)(Cn1cncn1)c1ccc(F)cc1F (relative stereo) [Compound 33] | 0.45 | 20 | –
14 | CSc1nnc(CS[C@H](C)[C@](O)(Cn2cncn2)c2ccc(F)cc2F)n1C (relative stereo) [Compound 34] | 3.2 | 30 | –
15 | C[C@@H](SCc1ncc2n1CCC2)[C@](O)(Cn1cncn1)c1ccc(F)cc1F (relative stereo) [Compound 35] | 0.71 | 33 | –
16 | Cc1nc(CS[C@H](C)[C@](O)(Cn2cncn2)c2ccc(F)cc2F)sc1C (relative stereo) [Compound 36] | 3.2 | 45 | –
17 | Cc1csc(CS[C@H](C)[C@](O)(Cn2cncn2)c2ccc(F)cc2F)n1 (relative stereo) [Compound 37] | 1.4 | 45 | –
18 | CC(=O)S[C@H](C)[C@](O)(Cn1cncn1)c1ccc(F)cc1F (relative stereo) [Compound 40] | 0.35 | 50 | –
19 | CCn1ccnc1CS[C@H](C)[C@](O)(Cn1cncn1)c1ccc(F)cc1F (relative stereo) [Compound 46] | 0.7 | 27 | –

Row | SMILES | ED50 [1, 3] [mg/kg] | zone of inhibition at 1000 µg/mL [2, 4] [mm] | other results
20 | CC(C)n1ccnc1CS[C@H](C)[C@](O)(Cn1cncn1)c1ccc(F)cc1F (relative stereo) [Compound 47] | 0.7 | 25 | –
21 | C[C@@H](SCc1nccn1CCF)[C@](O)(Cn1cncn1)c1ccc(F)cc1F (relative stereo) [Compound 48] | 0.77 | 23 | –
22 | C[C@@H](SCc1nccn1CC(F)(F)F)[C@](O)(Cn1cncn1)c1ccc(F)cc1F (relative stereo) [Compound 49] | 1 | 25 | –
23 | C[C@@H](SCc1nccn1CC1CC1)[C@](O)(Cn1cncn1)c1ccc(F)cc1F (relative stereo) [Compound 51] | 2 | 28 | –
24 | Cc1nc(CS[C@H](C)[C@](O)(Cn2cncn2)c2ccc(F)cc2F)cs1 (relative stereo) [Compound 52] | 2 | 35 | –
25 | Cc1ncc(CS[C@H](C)[C@](O)(Cn2cncn2)c2ccc(F)cc2F)s1 (relative stereo) [Compound 53] | 2 | 35 | –
26 | C[C@@H](SCc1nccn1CC(F)F)[C@](O)(Cn1cncn1)c1ccc(F)cc1F (relative stereo) [Compound 54] | 0.5 | 25 | –
27 | C[C@@H](SCc1nccn1C1CC1)[C@](O)(Cn1cncn1)c1ccc(F)cc1F (relative stereo) [Compound 55] | 0.5 | 30 | –
28 | C[C@@H](SCc1ncc2cnccn12)[C@](O)(Cn1cncn1)c1ccc(F)cc1F (relative stereo) [Compound 57, (2RS,3RS)-2-(2,4-difluorophenyl)-3-(imidazo[1,5-a]pyradin-3-yl)methylthio-1-(1H-1,2,4-triazol-1-yl)-2-butanol] | 0.5 | 30 | –
29 | C[C@@H](SCc1nccn1C(CF)CF)[C@](O)(Cn1cncn1)c1ccc(F)cc1F (relative stereo) [Compound 59] | 1.4 | 30 | –
30 | CC(n1cncn1)C(O)(CS)c1ccc(F)cc1F (single isomer, unassigned) [Compound 115, 2-(2,4-difluorophenyl)-1-mercapto-3-[(1H)-1,2,4-triazol-1-yl]-2-butanol] | > 4 | 33 | –
31 | CC(n1cncn1)C(O)(CS)c1ccc(F)cc1F (single isomer, unassigned) [Compound 116, 2-(2,4-difluorophenyl)-1-mercapto-3-[(1H)-1,2,4-triazol-1-yl]-2-butanol] | – | – | ED50 ([1]; s.c.): > 4.0 mg/kg; Inhibition zone diameter ([2]; B medium (yeast nitrogen base agar, pH 7.0)): 30 mm
32 | OC(CSCCn1cncn1)(Cn1cncn1)c1ccc(F)cc1F (stereo not shown) [Compound 2] | 19.3 | 17 | zone of inhibition at 1000 µg/mL [2, 6]: 18 mm
33 | O=S(=O)(CCn1cncn1)CC(O)(Cn1cncn1)c1ccc(F)cc1F (stereo not shown) [Compound 3] | 32.4 | – | zone of inhibition at 1000 µg/mL [2, 6]: 13 mm
34 | CC(SCC(O)(Cn1cncn1)c1ccc(F)cc1F)c1ccncc1 (stereo not shown) [Compound 10] | 35.4 | – | Inhibition zone diameter [2, 6]: 21 mm
35 | C[C@@H](S)[C@](O)(Cn1cncn1)c1ccc(F)cc1F [Compound 43, (2R,3R)-2-(2,4-difluorophenyl)-3-mercapto-1-(1H-1,2,4-triazol-1-yl)-2-butanol] | 0.18 | 40 | ED50 [1, 5]: 0.18 mg/kg
36 | CC(=O)S[C@H](C)[C@](O)(Cn1cncn1)c1ccc(F)cc1F [Compound 45, (2R,3R)-3-acetylthio-2-(2,4-difluorophenyl)-1-(1H-1,2,4-triazol-1-yl)-2-butanol] | 0.16 | 40 | ED50 [1, 5]: 0.18 mg/kg
37 | CC(C)C(=O)S[C@H](C)[C@](O)(Cn1cncn1)c1ccc(F)cc1F [Compound 62, (2R,3R)-2-(2,4-difluorophenyl)-3-isobutyrylthio-1-(1H-1,2,4-triazol-1-yl)-2-butanol] | 0.5 | 45 | ED50 [1, 5]: 0.35 mg/kg
